A word on the LC50: it is the concentration that kills 50% of the test population. Read a low LC50 as a more lethal substance. Broadly, the NOAEL is the highest dose or exposure tested at which no adverse effect was seen.

Here are results for one compound from EPA's ToxValDB 9.5 (doi:10.2903/j.efsa.2018.5288).

Each structure is given as a SMILES string. ≈ marks a conversion by molar mass, not a printed value.

The test system of series [1] is Anas platyrhynchos. As to conditions: short-term; mortality.
Series [2] has as its system Apis mellifera. As to conditions: acute, mortality.
Series [3] concerns Colinus virginianus.
Series [4] deals with Lepomis macrochirus. As to conditions: acute; duration: 96 hours; mortality.
For series [5], the system named is Mus musculus. As to conditions: chronic; duration: 18 months; oral; diet; neurology.
Series [6] has as its system Rattus norvegicus.

On to `CCCCC(CC)COC(=O)[C@@H](C)Oc1ccc(Cl)cc1Cl` (stereo not given in full) [Dichlorprop-P-2-ethylhexyl], for which the LD50 in series [1] was greater than 928 mg/kg-day; in series [2] (dermal), greater than 180 µg/piece; in series [2] (oral, unspecified) it was greater than 178 µg/piece; in series [3] (acute, oral, mortality), 1010 mg/kg-day; in series [6] (acute, mortality) it was 824 mg/kg-day. The NOEL in series [3] (reproduction developmental) stood at 101 mg/kg-day. The compound further had an LC50 in series [4] of 7.9 mg/L (≈ 22.7 µM). In addition, the NOAEL amounted to 6 mg/kg-day in series [5]; 80 mg/kg-day in series [6] (developmental, development); 20 mg/kg-day in series [6] (reproduction developmental, body weight).
